Measured values from patent US20210244721A1, “SMALL MOLECULE ENTEROVIRUS INHIBITORS AND USES THEREOF” (priority 2020, published 2021).
Like-named read-outs stand apart in the source and are kept apart here.

Columns and labels:
[1] = Cytotoxicity, neutral red method, RD cells; settings: human, RD (rhabdomyosarcoma) cells
[2] = system: EV-D68 US/KY/14-18953 virus; experiment: CPE assay, EV-D68 US/KY/14-18953 in RD cells; assay type: cell-based, Enterovirus D68 (EV-D68); settings: EV-D68 US/KY/14-18953, RD cells; for EC50: CPE assay
RD cells = experiment: Cytotoxicity, neutral red method, RD cells; settings: RD cells, neutral red method
EV-A71 US/AK/16-19516 = experiment: CPE assay, EV-A71 US/AK in RD cells; assay type: cell-based; settings: Enterovirus A, EVA71
CVB3 = experiment: CPE assay, CVB3 in Vero C1008 cells; assay type: cell-based, coxsackievirus B3 (CVB3); settings: Enterovirus B; CVB3, Vero C1008 cells; read-out: EC50
EV-A71 Tainan/4643/98 = experiment: CPE assay, EV-A71 Tainan in RD cells; assay type: cell-based; settings: Enterovirus A, EVA71; EV-A71 Tainan, RD cells; read-out: EC50
[3] = Enterovirus D, EVD68, RD, read-out: EC50

Row | Compound | CC50 at 3 days [1] | EC50 [2, 3] | SI = selectivity index (CC50/EC50) [2] | also measured
1 | CN(C)CCOC(=O)c1cc(-c2ccccc2)nc2ccccc12 [Compound 6ab, 2-(dimethylamino)ethyl 2-phenylquinoline-4-carboxylate] | 78.9 µM | > 50 µM |  | 
2 | CNCCCNC(=O)c1cc(-c2ccccc2)nc2ccccc12 [Compound 6ac, N-[3-(methylamino)propyl]-2-phenylquinoline-4-carboxamide] | 93.6 µM | 8.9 µM | SI50 = 10.5 | 
3 | NCCCNC(=O)c1cc(-c2ccccc2)nc2ccccc12 [Compound 6ad, N-(3-aminopropyl)-2-phenylquinoline-4-carboxamide] | 168 µM | 7.2 µM | SI50 = 23.4 | 
4 | O=C(NCC1CNC1)c1cc(-c2ccccc2)nc2ccccc12 [Compound 6ag, N-[(azetidin-3-yl)methyl]-2-phenylquinoline-4-carboxamide] | 43.2 µM | 5.8 µM |  | 
5 | O=C(NCC1(O)CNC1)c1cc(-c2ccccc2)nc2ccccc12 [Compound 6ah, N-[(3-hydroxyazetidin-3-yl)methyl]-2-phenylquinoline-4-carboxamide] | 82.2 µM | 5.1 µM |  | 
6 | O=C(NCCC1CCCN1)c1cc(-c2ccccc2)nc2ccccc12 (stereo not shown) [Compound 6ai, 2-phenyl-N-[2-(pyrrolidin-2-yl)ethyl]quinoline-4-carboxamide] | 19.1 µM | 6 µM |  | 
7 | O=C(NC1CNC1)c1cc(-c2ccccc2)nc2ccccc12 [Compound 6aj, N-(azetidin-3-yl)-2-phenylquinoline-4-carboxamide] | 36.6 µM | 4.2 µM |  | 
8 | CN1CC(NC(=O)c2cc(-c3ccccc3)nc3ccccc23)C1 [Compound 6ak, N-(1-methylazetidin-3-yl)-2-phenylquinoline-4-carboxamide] | 46.8 µM | 2.9 µM |  | 
9 | CC1(CNC(=O)c2cc(-c3ccccc3)nc3ccccc23)CNC1 [Compound 6al, N-[(3-methylazetidin-3-yl)methyl]-2-phenylquinoline-4-carboxamide] | 49.5 µM | 6.9 µM |  | 
10 | O=C(NCC1CCCNC1)c1cc(-c2ccccc2)nc2ccccc12 (stereo not shown) [Compound 6am] | 30.1 µM | 7.1 µM | SI50 = 4.2 | 
11 | NCCNC(=O)c1cc(-c2ccccc2)nc2ccccc12 [Compound 6an, N-(2-aminoethyl)-2-phenylquinoline-4-carboxamide] | 44.9 µM | 1.2 µM | SI50 = 37.4 | 
12 | N=C(N)NCCNC(=O)c1cc(-c2ccccc2)nc2ccccc12 [Compound 6ao, N-(2-carbamimidamidoethyl)-2-phenylquinoline-4-carboxamide] | > 200 µM | 3.3 µM | SI50 >60.6 | 
13 | CC(CN)NC(=O)c1cc(-c2ccccc2)nc2ccccc12 (stereo not shown) [Compound 6ap, N-(1-aminopropan-2-yl)-2-phenylquinoline-4-carboxamide] | 89.1 µM | 1.2 µM | SI50 = 74.3 | 
14 | [2H]c1c([2H])c([2H])c(-c2cc(C(=O)NCCNC)c3ccccc3n2)c([2H])c1[2H] [Compound 6as, N-[2-(methylamino)ethyl]-2 [(2,3,4,5,6-^2H5)phenyl]quinoline-4-carboxamide] | 101 µM | 1.1 µM | SI50 = 91.6 | 
15 | [2H]c1c([2H])c([2H])c(-c2cc(C(=O)NCCN)c3ccccc3n2)c([2H])c1[2H] [Compound 6at, N-(2-aminoethyl)-2 [(2,3,4,5,6-^2H5)phenyl]quinoline-4-carboxamide] | 100 µM | 2.2 µM | SI50 = 45.6 | 
16 | [2H]c1c([2H])c([2H])c(-c2cc(C(=O)NCC3CNC3)c3ccccc3n2)c([2H])c1[2H] [Compound 6au, N-[(azetidin-3-yl)methyl]-2 [(2,3,4,5,6-^2H5)phenyl]quinoline-4-carboxamide] | 188 µM | 6.4 µM | SI50 = 29.5 | 
17 | O=C(NC1CNC1)c1cc(-c2ccc(F)cc2)nc2ccccc12 [Compound 6ay, N-(azetidin-3-yl)-2-(4-fluorophenyl)quinoline-4-carboxamide] | 46.7 µM | 1.1 µM | SI50 = 42.5 | 
18 | O=C(NCC1CNC1)c1cc(-c2ccc(F)cc2)nc2ccccc12 [Compound 6az, N-[(azetidin-3-yl)methyl]-2-(4-fluorophenyl)quinoline-4-carboxamide] | 50.6 µM | 1.2 µM | SI50 = 42.2 | 
19 | CN(C)CCNC(=O)c1cc(-c2c(F)cccc2F)nc2ccccc12 [Compound 6bb, 2-(2,6-difluorophenyl)-N-[2-(dimethylamino)ethyl]quinoline-4-carboxamide] | 93 µM | 12.1 µM | SI50 = 7.7 | 
20 | CN(C)CCNC(=O)c1cc(-c2c(F)cc(F)cc2F)nc2ccccc12 [Compound 6bc, N-[2-(dimethylamino)ethyl]-2-(2,4,6-trifluorophenyl)quinoline-4-carboxamide] | 39.2 µM | 3.6 µM | SI50 = 10.9 | 

Row | Compound | CC50 at 3 days [1] | EC50 [2, 3] | SI = selectivity index (CC50/EC50) [2] | also measured
21 | CN(C)CCNC(=O)c1cc(-c2cc(F)c(F)c(F)c2)nc2ccccc12 [Compound 6bd, N-[2-(dimethylamino)ethyl]-2-(3,4,5-trifluorophenyl)quinoline-4-carboxamide] | 38 µM | > 300 µM |  | 
22 | CN(C)CCNC(=O)c1cc(-c2c(F)c(F)c(F)c(F)c2F)nc2ccccc12 [Compound 6be, N-[2-(dimethylamino)ethyl]-2-(2,3,4,5,6-pentafluorophenyl)quinoline-4-carboxamide] | 148 µM | 10.8 µM | SI50 = 13.7 | 
23 | CN1CC(NC(=O)c2cc(-c3cccs3)nc3ccccc23)C1 [Compound 6bh, N-(1-methylazetidin-3-yl)-2-(thiophen-2-yl)quinoline-4-carboxamide] | 42.6 µM | 1 µM | SI50 = 42.6 | 
24 | CC(CN)NC(=O)c1cc(-c2cccs2)nc2ccccc12 (stereo not shown) [Compound 6bm, N-(1-aminopropan-2-yl)-2-(thiophen-2-yl)quinoline-4-carboxamide] | 23.8 µM | 0.5 µM | SI50 = 47.6 | 
25 | O=C(NCC1CNC1)c1cc(-c2cccs2)nc2ccccc12 [Compound 6bn, N-[(azetidin-3-yl)methyl]-2-(thiophen-2-yl)quinoline-4-carboxamide] | 28.3 µM | 1.2 µM | SI50 = 23.6 | 
26 | NCCNC(=O)c1cc(-c2ccco2)nc2ccccc12 [Compound 6bp, N-(2-aminoethyl)-2-(furan-2-yl)quinoline-4-carboxamide] | 147 µM | 4.4 µM | SI50 = 33.4 | 
27 | O=C(NC1CNC1)c1cc(-c2ccco2)nc2ccccc12 [Compound 6bq, N-(azetidin-3-yl) 2-(furan-2-yl)quinoline-4-carboxamide] | 161 µM | 11.1 µM | SI50 = 14.5 | 
28 | O=C(NCC1CNC1)c1cc(-c2ccco2)nc2ccccc12 [Compound 6br, N-[(azetidin-3-yl)methyl]-2-(furan-2-yl)quinoline-4-carboxamide] | 170 µM | 11.5 µM | SI50 = 14.8 | 
29 | NCCNC(=O)c1cc(-c2ccco2)nc2c(Cl)cccc12 [Compound 6bs, N-(2-aminoethyl)-8-chloro-2-(furan-2-yl)quinoline-4-carboxamide] | 50.5 µM | 1 µM | SI50 = 50.5 | 
30 | NNC(=O)c1cc(-c2cccs2)nc2ccccc12 [Compound 12e, 2-(thiophen-2-yl)quinoline-4-carbohydrazide] |  |  | >8.4 | CC50 (RD cells): > 100 µM
31 | CNCCNC(=O)c1cc(-c2ccccc2)nc2ccccc12 [drawing 182] |  |  |  | EC50 (EV-A71 US/AK/16-19516): > 10 µM; EC50 (CVB3): 1.1 µM; EC50 (EV-A71 Tainan/4643/98): 7.8 µM
32 | CC(CN(C)C)NC(=O)c1cc(-c2ccccc2)nc2ccccc12 (stereo not shown) [drawing 183] |  |  |  | EC50 (EV-A71 US/AK/16-19516): 11.7 µM; EC50 (CVB3): 2 µM; EC50 (EV-A71 Tainan/4643/98): 18.3 µM
33 | CNCCNC(=O)c1cc(-c2ccc(F)cc2)nc2ccccc12 [drawing 186] |  |  |  | EC50 (CVB3): 0.2 µM; EC50 (EV-A71 Tainan/4643/98): 3.1 µM; EC50 [2]: 0.2 µM
34 | CN(C)CCNC(=O)c1cc(-c2ccc(F)cc2F)nc2ccccc12 [drawing 188] |  |  |  | EC50 (EV-A71 US/AK/16-19516): > 10 µM; EC50 (CVB3): 0.4 µM; EC50 (EV-A71 Tainan/4643/98): 7.9 µM
35 | CN(C)CCNC(=O)c1cc(-c2cccs2)nc2ccccc12 [drawing 189] |  |  |  | EC50 (EV-A71 US/AK/16-19516): > 10 µM; EC50 (CVB3): 0.07 µM; EC50 (EV-A71 Tainan/4643/98): 2.9 µM; EC50 [2]: 0.04 µM
36 | CC(CN(C)C)NC(=O)c1cc(-c2cccs2)nc2ccccc12 (stereo not shown) [drawing 190] |  |  |  | EC50 (EV-A71 US/AK/16-19516): 8.8 µM; EC50 (CVB3): 0.4 µM; EC50 (EV-A71 Tainan/4643/98): 7.9 µM
37 | CN1CCC(NC(=O)c2cc(-c3cccs3)nc3ccccc23)C1 (stereo not shown) [drawing 191] |  |  |  | EC50 (EV-A71 US/AK/16-19516): 8 µM; EC50 (CVB3): 0.2 µM; EC50 (EV-A71 Tainan/4643/98): 6.3 µM
38 | NCCNC(=O)c1cc(-c2cccs2)nc2ccccc12 [drawing 193] |  |  |  | EC50 (EV-A71 US/AK/16-19516): > 30 µM; EC50 (CVB3): 0.6 µM; EC50 (EV-A71 Tainan/4643/98): 38.3 µM
39 | CN(C)CCNC(=O)c1cc(-c2ccco2)nc2ccccc12 [drawing 194] |  |  |  | EC50 (EV-A71 US/AK/16-19516): 20.9 µM; EC50 (CVB3): 1.2 µM; EC50 (EV-A71 Tainan/4643/98): 30.9 µM
